Test: xn = mol fraction of the nth substance listed
Conditions: 101 kPa, Liquid, Sing-around technique in a fixed-path interferometer

CCCOCC(C)O (stereo not given) [1-propoxy-2-propanol] + O
speed of sound [m/s]
Conditions | 283.15 K | 288.15 K | 293.15 K | 298.15 K | 303.15 K
x1 = 0.00326 | 1470.7 | 1487.1 | 1501.5 | 1514.2 | 1527.5
x1 = 0.00845 | 1503.1 | 1516.8 | 1528.7 | 1538.8 | 1548.3
x1 = 0.01369 | 1533.3 | 1543.7 | 1552.5 | 1560.1 | 1565.5
x1 = 0.01942 | 1563.4 | 1570.1 | 1575.7 | 1579.2 | 1581.5
x1 = 0.02453 | 1582.6 | 1585.6 | 1586.9 | 1586.7 | 1585.7
x1 = 0.02855 | 1594.9 | 1594 | 1591.7 | 1587.7 | 1582.4
x1 = 0.03532 | 1598 | 1590.9 | 1583.2 | 1575.1 | 1566.6
x1 = 0.04675 | 1577.1 | 1566.9 | 1557 | 1547.1 | 1536.8
x1 = 0.06359 | 1545.3 | 1535.2 | 1524.6 | 1513.5 | 1501.6
x1 = 0.08224 | 1520.5 | 1509.6 | 1498.1 | 1486 | 1472.6
x1 = 0.09758 | 1504.9 | 1493.2 | 1481 | 1467.8 | 1454
x1 = 0.1185 | 1487.8 | 1475.4 | 1462.3 | 1448.6 | 1434
x1 = 0.145 | 1470.9 | 1457.6 | 1444 | 1429.6 | 1414.6
x1 = 0.1945 | 1447.2 | 1433.1 | 1418.6 | 1403.7 | 1388.4
x1 = 0.2213 | 1437.3 | 1422.4 | 1407.9 | 1392.7 | 1377.5
x1 = 0.2686 | 1422.1 | 1406.9 | 1391.7 | 1376 | 1360.6
x1 = 0.3432 | 1402.5 | 1386.5 | 1370.8 | 1354.5 | 1338.5
x1 = 0.4424 | 1381.2 | 1364.5 | 1347.8 | 1330.9 | 1314.2
x1 = 0.5415 | 1363 | 1345.7 | 1328.4 | 1311 | 1293.7
x1 = 0.6444 | 1346.5 | 1328.6 | 1310.8 | 1293 | 1275.3
x1 = 0.7056 | 1337.3 | 1319.3 | 1301.3 | 1283.3 | 1265.3
x1 = 0.7569 | 1330.3 | 1312 | 1293.9 | 1275.7 | 1257.7
x1 = 0.7951 | 1325.2 | 1306.9 | 1288.7 | 1270.4 | 1252.4
x1 = 0.8374 | 1320.2 | 1301.4 | 1283.2 | 1264.8 | 1246.5
x1 = 0.88 | 1314.6 | 1296.2 | 1277.8 | 1259.4 | 1240.9
x1 = 0.9193 | 1310.3 | 1291.7 | 1273.4 | 1254.8 | 1236.5
x1 = 0.9597 | 1306 | 1287.3 | 1268.9 | 1250.2 | 1231.7
x1 = 1 | 1301.9 | 1283.2 | 1264.5 | 1245.8 | 1227.3

Source: the NIST ThermoML archive (doi:10.1016/j.jct.2011.09.008)
